The record followed here is publication PMC10982999, “Structure-Guided Design and Optimization of Covalent VHL-Targeted Sulfonyl Fluoride PROTACs” (Journal of Medicinal Chemistry, 2024).

Data set [1] has as its target T1, recombinant human VCB (VHL protein with elongin C and elongin B) (Homo sapiens, UniProt P40337).
T1 construct: human VHL (UniPort entry P40337, residues 1 -213); 6xHis followed by TEV site (N, cleaved yes); made in house; host or cells: E. coli One Shot BL21(DE3)
As to the kind of experiment: Gel-based streptavidin shift assay (anti-VHL Western blot). The format is binding. Particulars: 10 μM probe, 2 h incubation at room temperature. Here is the method: To assess the ability of VHL-SF1 to covalently modify VHL, we initially developed a streptavidin shift assay in which we exposed recombinant human VCB, a stable complex of VHL protein with elongin C and elongin B, to VHL-SF1-Biotin. VHL biotinylation could then be directly quantified by the apparent shift in molecular weight observed when the sample was mixed with streptavidin and analyzed by an anti-VHL Western blot (Figure S2).[20] Through this assay, we concluded that 10 μM VHL-SF1-Biotin modified 32% VHL following 2 h of incubation at room temperature, which was further confirmed to be concentration-dependent with respect to the probe (Figure S3).
Figure S2. (A) Structure of VHL-SF-1-Biotin. (B) Structure of VHL-SF-2-Biotin. (C - E) Gel-based streptavidin shift assay of VHL-SF1-Biotin, and VHL-SF2-Biotin. VCB protein was pre-treated with DMSO, VHL-SF1-Biotin (10 μM) or VHL-SF2-Biotin (10 μM) for 2 h at room temperature prior to addition of streptavidin (10 μM, 10 min) at room temperature, after which protein was resolved on SDS-PAGE and visualised by VHL western blotting. (F) Quantification of VHL levels from western blot.
Docking analysis with Molecular Operating Environment (MOE)
Molecular modelling studies were conducted using the software Molecular Operating Environment 2019.01. […]

A short description of the next data set: physchem. As to conditions: buffer. As for the experimental part:
Table S1. Sulfonyl fluoride warhead stability for VHL-SF1 and VHL-SF2 was determined in
(1 picture or pasted object on this page, not shown here)

For data set [2], the target named is T2, VCB and FAM-conjugated HIF1α-derived peptide interaction (Homo sapiens, UniProt P40337).
T2 construct: human VHL (UniPort entry P40337, residues 1 -213); 6xHis followed by TEV site (N, cleaved yes); made in house; host or cells: E. coli One Shot BL21(DE3)
As to the kind of experiment: Competitive fluorescence polarization (FP) assay, VCB / FAM-conjugated HIF1α-derived peptide. The class given is binding. Particulars: concentrations up to 100 μM, 2 h pre-incubation with VCB. As for the experimental part: We next focused on developing a second generation covalent VHL binder with enhanced potency and occupancy.
Figure 2 (A) Structure of VHL-SF2. […] (E) Competition pull-down assay from live cells between VHL-SF2-Biotin and VHL-SF2. HEK293T cells were pretreated with DMSO or varying concentrations of VHL-SF2 for 2 h at 37 °C. The cells were lysed and treated with DMSO or VHL-SF2-Biotin (50 μM) for 2 h at room temperature. A pull-down with streptavidin beads was conducted, after which the protein was resolved on SDS/PAGE. VHL and loading control GAPDH levels were visualized by Western blotting.
Figure S3. (A) Gel-based VHL labelling of VHL-SF1-Biotin, and (B) VHL-SF2-Biotin. VCB protein was pre-treated with DMSO, VHL-SF1-Biotin or VHL-SF2-Biotin for 2 h at room temperature, after which protein was resolved on SDS -PAGE and visualised by Neutravidin […]
Figure S4. Dose-response of VHL-SF1 following a 2 h pre-incubation in the presence of VCB and FAM-conjugated HIF1α-derived peptide, assessed by fluorescence polarization. Data […]
Figure S5. (A) VCB was incubated with DMSO for 24 h and subjected to intact-protein LC-MS (VHL: 24784 Da). […]
Fluorescence polarization assay protocol […]
well plate and the plate was shaken for 1 min, before reading fluorescence polarization on a Perkin Elmer Envision 2101 plate reader (excitation 486 nm, emission 535 nm). […]

In the case of `Cc1cc([C@H](C(=O)N2C[C@H](S(=O)(=O)F)C[C@H]2C(=O)N[C@@H](CC(=O)NCCOCCOCCOCCNC(=O)CCCC[C@H]2SC[C@@H]3NC(=O)N[C@@H]32)c2ccc(-c3scnc3C)cc2)C(C)C)on1` [VHL-SF2-Biotin, (3R,5S)-1-((R)-3-Methyl-2-(3-methylisoxazol-5-yl)butanoyl)-5-(((S)-1-(4-(4-methylthiazol-5-yl)phenyl)-3,17-dioxo-21-((3aS,4R,6aR)-2-oxohexahydro-1H-thieno[3,4-d]imidazole-4-yl)-7,10,13-trioxa-4,16-diazahenicosyl)carbamoyl)pyrrolidine-3-sulfonyl fluoride], the “VHL modified (VHL biotinylation, streptavidin shift)” value in data set [1] was 44%.
As for `CC(=O)N[C@H](C(=O)N1C[C@H](S(=O)(=O)F)C[C@H]1C(=O)NCc1ccc(-c2scnc2C)cc1)C(C)(C)C` [VHL-SF1, (3R,5S)-1-((S)-2-Acetamido-3,3-dimethylbutanoyl)-5-((4-(4-methylthiazol-5-yl)benzyl)carbamoyl)-pyrrolidine-3-sulfonyl fluoride], the half-life in the data set “physchem” (pH 6) was 15 h; in “physchem” (pH 7.5) it was 0.55 h. Also, the “displacement of fluorophore-labeled HIF1α peptide” value in data set [2] was “unable to displace”.
